This is an account of results in patent US10450260B2, “NO- and H2S-releasing compounds” (RESEARCH FOUNDATION OF THE CITY UNIVERSITY OF NEW YORK, priority 2011, dated 2019).

Read-outs that look alike come from different tables or passages of the source.

Assay [1] relates to SK-BR-3 human breast cancer. The assay can be described thus: MTT cell growth inhibition, SKBR3. It counts as cell-based. To be noted: for IC50: Homo sapiens, SK-BR-3; for Ratio NSAID/NOSH-NSAID, SKBR3: fold-enhancement in potency over the parent compound. How it is done: (§1) All cells lines were grown as monolayers except for the Jurkats which were grown in suspension. […] All media were supplemented with 10% fetal calf serum (Invitrogen, Carlsbad, Calif.) penicillin (50 U/ml), and streptomycin (50 μg/ml) (Invitrogen, Carlsbad, Calif.). Cells were seeded on culture dishes at a density of 25×10^3 cells/cm^2 and incubated at 37° C. in 5% CO2 and 90% relative humidity. Single cell suspensions were obtained by trypsinization (0.05% trypsin/EDTA), and cells were counted using a hemocytometer. Viability was determined by the trypan blue dye exclusion method.
(§2) Cell growth inhibitory effect of NOSH compounds were measured using a colorimetric MTT assay kit (Roche, Indianapolis, Ind.). Cancer cells were plated in 96-well plates at a density of 50,000 cells/well. The cells were incubated for 24 h with different concentrations of NOSH compounds. After the indicated time, 10 μl of MTT dye (3-[4,5-dimethylthiazol-2-yl]-2,5-diphenyl tetrazolium bromide, 5 mg/ml in phosphate buffered saline), was added to each well, and the plates were incubated for 2 hours at 37° C. Then, the media was aspirated, and add 100 μl of the solubilization solution (10% SDS in 0.01 M HCl) was added to each well to solubilize the formant crystals. The absorbance of the plates was measured on an ELISA reader at a wavelength of 570 nm. Each sample was performed in triplicate, and the entire experiment was repeated three times.
(§3) All media were supplemented with 10% fetal calf serum (Invitrogen, Carlsbad, Calif.) penicillin (50 U/ml), and streptomycin (50 μg/ml) (Invitrogen, Carlsbad, Calif.). Cells were seeded on culture dishes at a density of 25×10^3 cells/cm^2 and incubated at 37° C. in 5% CO2 and 90% relative humidity. Single cell suspensions were obtained by trypsinization (0.05% trypsin/EDTA), and cells were counted using a hemacytometer. The final DMSO concentration was adjusted in all media to 1%. Viability was determined by the trypan blue dye exclusion method.
(§4) Cell growth inhibitory effect of all NOSH-NSAIDs was measured using a colorimetric MTT assay kit (Roche, Indianapolis, Ind.). Cancer cells were plated in 96-well plates at a density of 30,000-50,000 cells/well depending on cell type. The cells were incubated for 24 hours with different concentrations of NOSH-NSAIDs. After the indicated time, 10 μL of MTT dye (3-[4,5-dimethylthiazol-2-yl]-2,5-diphenyl tetrazolium bromide, 5 mg/mL in phosphate buffered saline), was added to each well, and the plates were incubated for 2 hours at 37° C. Then, the media was aspirated, and 100 μL of the solubilization solution (10% SDS in 0.01 M HCl) was added to each well to solubilize the formant crystals. The absorbance of the plates was measured on a spectrophotometric plate reader at a wavelength of 570 nm. Each experiment was performed in triplicate, and the entire experiment was repeated three times.

Assay [2] concerns HCT-15 human colon adenocarcinoma. The assay can be described thus: MTT cell growth inhibition, HCT15. The format is cell-based. The conditions noted are these: for IC50: Homo sapiens, HCT-15; for Ratio NSAID/NOSH-NSAID, HCT15: fold-enhancement in potency over the parent compound. The procedure:
as §1, §2, §3, §4

Assay [3] concerns Jurkat T cell human leukemia. Description: MTT cell growth inhibition, Jurkat. The format is cell-based. To be noted: for IC50: Homo sapiens, Jurkat; for Ratio NSAID/NOSH-NSAID, Jurkat: fold-enhancement in potency over the parent compound. The procedure:
as §1, §2, §3, §4

The subject of assay [4] is SW-480 human colon adenocarcinoma. The assay can be described thus: MTT cell growth inhibition, SW480. To be noted: for IC50: Homo sapiens, SW480; for Ratio NSAID/NOSH-NSAID, SW480: fold-enhancement in potency over the parent compound. The format is cell-based. The procedure:
as §1, §2, §3, §4

A further assay addresses T1, ovine COX-2 (Ovis aries, UniProt P79208).
T1 construct: purchased Cayman Chemicals (Ann Arbor, Mich.)
T1 sequence (P79208 17-603): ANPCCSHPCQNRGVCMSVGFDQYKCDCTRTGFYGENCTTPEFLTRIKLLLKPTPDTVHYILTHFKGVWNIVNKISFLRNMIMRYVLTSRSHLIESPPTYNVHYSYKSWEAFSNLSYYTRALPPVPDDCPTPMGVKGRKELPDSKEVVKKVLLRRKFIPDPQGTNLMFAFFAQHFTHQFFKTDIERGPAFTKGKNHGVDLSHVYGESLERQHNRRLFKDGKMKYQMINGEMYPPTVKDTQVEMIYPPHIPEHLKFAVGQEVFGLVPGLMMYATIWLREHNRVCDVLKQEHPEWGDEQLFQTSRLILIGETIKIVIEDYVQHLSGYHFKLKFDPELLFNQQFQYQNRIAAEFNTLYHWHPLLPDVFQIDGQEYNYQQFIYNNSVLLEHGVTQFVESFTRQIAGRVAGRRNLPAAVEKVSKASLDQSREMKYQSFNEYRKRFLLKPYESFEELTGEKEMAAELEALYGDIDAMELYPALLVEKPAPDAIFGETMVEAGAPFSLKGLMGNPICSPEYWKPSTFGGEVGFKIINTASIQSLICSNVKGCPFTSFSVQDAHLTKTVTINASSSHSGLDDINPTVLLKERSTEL
The assay can be described thus: COX-2 enzyme activity, colorimetric inhibitor screening kit. The conditions noted are these: for inhibition at 3000 µM: read-out: COX-2-% Inhibition, 3 mM (Table 8). It counts as biochemical.

As a reminder, the IC50 is the midpoint of a concentration-inhibition curve. A lower IC50 goes with greater potency. For `O=C(CCC(=O)Oc1ccccc1C(=O)Oc1ccc(-c2cc(=S)ss2)cc1)OCCCCO[N+](=O)[O-]` [NOSH-2, 4-(nitrooxy)butyl (2-((4-(3-thioxo-3H-1,2-dithiol-5-yl)phenoxy)carbonyl)phenyl) succinate], the IC50 in assay [1] (24 hours) stood at 88 ± 7 nM; in assay [2] (24 hours) it was 90 ± 6 nM; in assay [3] (24 hours), 90 ± 5 nM; in assay [4] (24 hours) it was 97 ± 7 nM.

For the molecule `O=C(CCCC[C@@H]1CCSS1)Oc1ccccc1C(=O)OCCCCO[N+](=O)[O-]` [NOSH-4, (R)-4-(nitrooxy)butyl 2-((5-(1,2-dithiolan-3-yl)pentanoyl)oxy)benzoate], the IC50 in assay [1] (24 hours) came to 550 ± 28 nM; in assay [2] (24 hours), 520 ± 21 nM; in assay [3] (24 hours), 240 ± 11 nM; in assay [4] (24 hours), 600 ± 25 nM.

In general, inhibition refers to the relative decrease from the control value, in per cent. Take `COc1ccc2cc([C@H](C)C(=O)O)ccc2c1` [naproxen, reference compound]: the “COX-2-% Inhibition” value on ovine COX-2 (3 mM (Table 8)) stood at 70.2%. Besides, the inhibition at 3000 µM on ovine COX-2 turned out to be 68.6%. Further, the inhibition at 6000 µM on ovine COX-2 (read-out: COX-2-% Inhibition, 6 mM (Table 8)) is 74.6%.

For the molecule `CC1=C(CC(=O)O)c2cc(F)ccc2/C1=C\c1ccc([S+](C)[O-])cc1` (stereo not drawn) [sulindac, reference compound], the IC50 amounted to 845000 nM in assay [1] (24 hours (Table 7)), 850000 nM in assay [2] (24 hours (Table 7)), 699000 nM in assay [3] (24 hours (Table 7)) and 710000 nM in assay [4] (24 hours (Table 7)). Also, on ovine COX-2 (800 μM (Table 8)), the inhibition at 800 µM was found to be 66.8%. Moreover, on ovine COX-2 (800 μM (Table 8), 800 µM), the “COX-2-% Inhibition” value amounted to 68.5%. In addition, on ovine COX-2 (1600 μM (Table 8)), at 1600 µM the inhibition was 71.1%.

Regarding `O=C(CCCO[N+](=O)[O-])Oc1ccccc1C(=O)Oc1ccc(-c2cc(=S)ss2)cc1` [NOSH-1, 4-(3-thioxo-3H-1,2-dithiol-5-yl)phenyl 2-((4-(nitrooxy)butanoyl)oxy)benzoate], the IC50 in assay [1] (24 hours) worked out at 75 ± 5 nM; in assay [2] (24 hours), 50 ± 5 nM; in assay [3] (24 hours), 100 ± 8 nM; in assay [4] (24 hours) it was 60 ± 4 nM. Moreover, at 0.025 µM the inhibition at ovine COX-2 (25 nM (Table 6)) was 5.4 ± 0.7%. Besides, the inhibition at 0.05 µM is 14.5 ± 1% on ovine COX-2 (50 nM (Table 6)) and 23.3% against ovine COX-2 (50 nM (Table 8)). The “COX-2-% Inhibition” value at ovine COX-2 (50 nM (Table 8), listed as NOSH-ASA, 0.05 µM) is given as 20.9%. Also, the inhibition at 0.1 µM came to 27.2 ± 0.7% against ovine COX-2 (100 nM (Table 6)) and 29.1% against ovine COX-2 (100 nM (Table 8)).

As for `CC(=O)Oc1ccccc1C(=O)O` [ASA, aspirin, reference compound], the “COX-2-% Inhibition” value at ovine COX-2 (1 mM, 15 min at 4° C. (Table 8)) was found to be 70.2%. Further, the inhibition at 1000 µM at ovine COX-2 (read-out: COX-2 % Inhibition, 1 mM (Table 6)) was 50.6 ± 1.1%; at ovine COX-2 (read-out: COX-2-% Inhibition, 1 mM, 15 min at 4° C. (Table 8)), 68.4%. Besides, the inhibition at 3000 µM on ovine COX-2 came to 74.6%.

`CC1=C(CC(=O)Oc2ccc(OC(=O)CCCO[N+](=O)[O-])c(C(=O)Oc3ccc(-c4cc(=S)ss4)cc3)c2)c2cc(F)ccc2/C1=C/c1ccc([S+](C)[O-])cc1` (stereo not drawn) [NOSH-8, (E)-4-(3-thioxo-3H-1,2-dithiol-5-yl)phenyl 5-(2-(5-fluoro-2-methyl-1-(4-(methylsulfinyl)benzylidene)-1H-inden-3-yl)acetoxy)-2-((4-(nitrooxy)butanoyl)oxy)benzoate]: the IC50 in assay [1] (24 hours (Table 7)) came to 120 nM; in assay [2] (24 hours (Table 7)), 110 nM; in assay [3] (24 hours (Table 7)), 270 nM; in assay [4] (24 hours (Table 7)), 110 nM. In assay [1], the “Ratio NSAID/NOSH-NSAID, SKBR3” value is on record as 7,041. Also, the “Ratio NSAID/NOSH-NSAID, HCT15” value in assay [2] was 7,727. Moreover, the “Ratio NSAID/NOSH-NSAID, Jurkat” value in assay [3] is given as 2,588. The same molecule showed an inhibition at 0.089 µM at ovine COX-2 (89 nM (Table 8)) of 13.6%. In addition, the “COX-2-% Inhibition” value at ovine COX-2 (89 nM (Table 8), listed as NOSH-SULINDAC, 0.089 µM) was found to be 12.3%. The “Ratio NSAID/NOSH-NSAID, SW480” value in assay [4] was 6,454.

As to `CC(C(=O)Oc1ccc(-c2cc(=S)ss2)cc1)c1ccc2cc(OC(=O)CCCO[N+](=O)[O-])ccc2c1` (stereo not drawn) [NOSH-7, 6-(1-oxo-1-(4-(3-thioxo-3H-1,2-dithiol-5-yl)phenoxy)propan-2-yl)naphthalen-2-yl 4-(nitrooxy)butanoate], the IC50 in assay [1] (24 hours (Table 7)) amounted to 100 nM; in assay [2] (24 hours (Table 7)), 100 nM; in assay [3] (24 hours (Table 7)) it was 100 nM; in assay [4] (24 hours (Table 7)), 98 nM. Further, the “Ratio NSAID/NOSH-NSAID, SKBR3” value in assay [1] is 28,900. Further, in assay [2], the “Ratio NSAID/NOSH-NSAID, HCT15” value is recorded as 28,500. Moreover, in assay [3], the “Ratio NSAID/NOSH-NSAID, Jurkat” value is 25,500. Further, at 0.08 µM the inhibition at ovine COX-2 (80 nM (Table 8)) was 18.8%. On ovine COX-2 (80 nM (Table 8), listed as NOSH-NAPROXEN, 0.08 µM), the “COX-2-% Inhibition” value is 15.8%. This molecule also returned an inhibition at 0.16 µM against ovine COX-2 (160 nM (Table 8)) of 11%. Moreover, the “Ratio NSAID/NOSH-NSAID, SW480” value in assay [4] is 31,734.

Take `NC(=S)c1ccc(OC(=O)c2ccccc2OC(=O)CCCO[N+](=O)[O-])cc1` [NOSH-3, 4-carbamothioylphenyl 2-((4-(nitrooxy)butanoyl)-oxy)benzoate]: the IC50 in assay [1] (24 hours) is 6500 ± 268 nM; in assay [2] (24 hours), 5900 ± 305 nM; in assay [3] (24 hours), 7000 ± 321 nM; in assay [4] (24 hours), 5300 ± 240 nM.
